Results taken from ChEMBL document CHEMBL6087436, “The novel β-hairpin antimicrobial peptide D-G(RF)3 demonstrates exceptional antibacterial efficacy” (Eur J Med Chem, 2025).

Tested on: Staphylococcus aureus
Test: Additive antibacterial activity against Staphylococcus aureus assessed as fractional inhibitory concentration index in presence of ciprofloxacin incubated for 18 hrs by checkerboard method
Format: functional

## N=C(N)NCCC[C@H](NC(=O)CNC(=O)[C@H]1CCCN1C(=O)[C@H](CCCNC(=N)N)NC(=O)[C@H](Cc1ccccc1)NC(=O)[C@H](CCCNC(=N)N)NC(=O)[C@H](Cc1ccccc1)NC(=O)[C@H](CCCNC(=N)N)NC(=O)[C@@H](N)Cc1ccccc1)C(=O)N[C@@H](Cc1ccccc1)C(=O)N[C@@H](CCCNC(=N)N)C(=O)N[C@@H](Cc1ccccc1)C(=O)N[C@@H](CCCNC(=N)N)C(=O)N[C@@H](Cc1ccccc1)C(N)=O
  fractional inhibitory concentration index (FICI): 0.563
